In US20250154146A1, “PROTEIN DEGRADERS DEVELOPED ON BASIS OF BCL-2 FAMILY PROTEIN LIGAND COMPOUNDS AND USE THEREOF” (ShanghaiTech University, priority 2022, published 2025):

Assays:
Type in all cases: cell-based
Molt-4 cells = experiment: Thiazolyl blue cell proliferation assay in Molt-4 cells; conditions: Homo sapiens, Molt-4 acute lymphocytic leukemia cells, 72 hours, read-out: IC50 (nM) for inhibiting the proliferation of Molt-4 cells
Source text: (§1) The cell lines RS4;11 (human acute lymphocytic leukemia cells), Molt-4 cells (human acute lymphocytic leukemia cells), MV4;11 (human myeloid monocytic leukemia cells), and Light II cells were commercially available or purchased from ATCC (American Type Culture Collection) and routinely cultured according to instructions.
3) Study on the proliferation inhibition effects induced by the compounds of the present disclosure designed based on ABT199/263 against BCL-XL-dependent Molt-4 cells:
(§2) The specific steps were as follows: Molt-4 cells were seeded at a density of 2×10^4 cells/well in 180 μL of serum-containing RPMI 1640 culture medium. DT2216 and the compounds of the present disclosure were added to the cell suspension at corresponding concentration gradients. DT2216 and DMSO were used as positive and vehicle control, respectively. The positive control and negative control were treated with the same treatment method as the compounds of the present disclosure. After treating the cells with the compounds of the present disclosure for 72 hours, thiazole blue solution (5 mg/mL) was added at 20 μL/well to the cell suspension, followed by incubation for 3 hours at 37° C. in an incubator with 5% CO2. Then, triple solution (0.1 g/mL SDS, 5% isopropyl alcohol, 10 mM hydrochloric acid) was added, followed by incubation for 4-6 hours at 37° C. in an incubator with 5% CO2. After confirming that all the crystal violets were dissolved under inverted biological microscopy, the absorbance was measured at 490 nm using an Epoch microplate reader (Biotek Corporation). The growth inhibition of the compounds of the present disclosure on the cells was plotted by GraphPad Prism 8 software, and the IC50 values of the compounds of the present disclosure were calculated therefrom. The experiment had 3 replicates per group and was repeated at least three times.

MV4;11 cells = experiment: Thiazolyl blue cell proliferation assay in MV4;11 cells; conditions: Homo sapiens, MV4;11 myeloid monocytic leukemia cells, 48 hours, read-out: IC50 (nM) for inhibiting the proliferation of MV4;11 cells
Source text: as §1
2) Study on the proliferation inhibition effects induced by the compounds of the present disclosure designed based on ABT199/263 against BCL-XL-dependent MV4;11 cells:
as §2, with “MV4;11” for “Molt-4”, “90” for “180”, “IMDM” for “RPMI 1640”, “48” for “72”, “10 µL/well” for “20 μL/well”

RS4;11 cells = experiment: Thiazolyl blue cell proliferation assay in RS4;11 cells; conditions: Homo sapiens, RS4;11 acute lymphoblastic leukemia cells, 48 hours, read-out: IC50 (nM) for inhibiting the proliferation of RS4;11 cells
Source text: as §1
1) Study on the proliferation inhibition effects induced by the compounds of the present disclosure designed based on ABT199/263 against BCL-XL-dependent RS4;11 cells:
as §2, with “RS4;11” for “Molt-4”, “3×10^4” for “2×10^4”, “90” for “180”, “RPMI-1640” for “RPMI 1640”, “48” for “72”, “10” for “20”
We conducted dose-dependent experiments on the designed and synthesized compounds of the present disclosure in RS4;11 cells, which are highly sensitive to BCL-XL inhibitors. The cells were treated with 7 different concentrations (starting at the highest concentration of 1000 nM or 100 nM; 10-fold serial dilutions) of the compounds for 48 hours, and then tested using the thiazolyl blue cell proliferation assay.

Structure (SMILES)	IC50 (Molt-4 cells)	IC50 (MV4;11 cells)	IC50 (RS4;11 cells)
CC1(C)CCC(CN2CCN(c3ccc(C(=O)NS(=O)(=O)c4ccc(NC[C@H]5CC[C@H](N6CCN(Cc7cc(Br)c8c(c7)C(=O)N(C7CCC(=O)NC7=O)C8)CC6)CC5)c(S(=O)(=O)C(F)(F)F)c4)c(Oc4cnc5[nH]ccc5c4)c3)CC2)=C(c2ccc(Cl)cc2)C1 (stereo partly drawn) [BCL-03182, 2-((1H-pyrrolo[2,3-b]pyridin-5-yl)oxy)-N-((4-((((trans)-4-(4-((7-bromo-2-(2,6-dioxopiperidin-3-yl)-3-oxoisoindolin-5-yl)methyl)piperazin-1-yl)cyclohexyl)methyl)amino)-3-((trifluoromethyl)sulfonyl)phenyl)sulfonyl)-4-(4-((4′-chloro-5,5-dimethyl-3,4,5,6-tetrahydro-[1,1′-biphenyl]-2-yl)methyl)piperazin-1-yl)benzamide]	< 10 nM	< 20 nM	< 20 nM
CC1(C)CCC(c2ccc(Cl)cc2)=C(CN2CCN(c3ccc(C(=O)NS(=O)(=O)c4ccc(NC[C@H]5CC[C@H](N6CCN(Cc7ccc8c(c7)CN(C7CCC(=O)NC7=O)C8=O)CC6)CC5)c([N+](=O)[O-])c4)cc3)CC2)C1 (stereo partly drawn) [BCL-03181, 4-(4-((4′-chloro-4,4-dimethyl-3,4,5,6-tetrahydro-[1,1′-biphenyl]-2-yl)methyl)piperazin-1-yl)-N-((4-((((trans)-4-(4-((2-(2,6-dioxopiperidin-3-yl)-1-oxoisoindolin-5-yl)methyl)piperazin-1-yl)cyclohexyl)methyl)amino)-3-nitrophenyl)sulfonyl)benzamide]	–	–	< 20 nM
CC1(C)CCC(CN2CCN(c3ccc(C(=O)NS(=O)(=O)c4ccc(NC[C@H]5CC[C@H](N6CCN(Cc7ccc8c(c7)C(=O)N(C7CCC(=O)NC7=O)C8=O)CC6)CC5)c([N+](=O)[O-])c4)c(Oc4cnc5[nH]ccc5c4)c3)CC2)=C(c2ccc(Cl)cc2)C1 (relative stereo) [BCL-03188, 2-((1H-pyrrolo[2,3-b]pyridin-5-yl)oxy)-4-(4-((4′-chloro-5,5-dimethyl-3,4,5,6-tetrahydro-[1,1′-biphenyl]-2-yl)methyl)piperazin-1-yl)-N-((4-((((trans)-4-(4-((2-(2,6-dioxopiperidin-3-yl)-1,3-dioxoisoindolin-5-yl)methyl)piperazin-1-yl)cyclohexyl)methyl)amino)-3-nitrophenyl)sulfonyl)benzamide]	< 10 nM	< 20 nM	< 20 nM
C[C@H]1CN([C@H]2CC[C@@H](CNc3ccc(S(=O)(=O)NC(=O)c4ccc(N5CCN(CC6=C(c7ccc(Cl)cc7)CC(C)(C)CC6)CC5)cc4Oc4cnc5[nH]ccc5c4)cc3[N+](=O)[O-])CC2)CCN1Cc1ccc2c(c1)C(=O)N(C1CCC(=O)NC1=O)C2=O (stereo partly drawn) [BCL-03190, 2-((1H-pyrrolo[2,3-b]pyridin-5-yl)oxy)-4-(4-((4′-chloro-5,5-dimethyl-3,4,5,6-tetrahydro-[1,1′-biphenyl]-2-yl)methyl)piperazin-1-yl)-N-((4-((((cis)-4-((3S)-4-((2-(2,6-dioxopiperidin-3-yl)-1,3-dioxoisoindolin-5-yl)methyl)-3-methylpiperazin-1-yl)cyclohexyl)methyl)amino)-3-nitrophenyl)sulfonyl)benzamide]	< 10 nM	< 20 nM	< 20 nM
Cc1ncsc1-c1ccc([C@H](C)NC(=O)[C@@H]2C[C@@H](O)CN2C(=O)[C@@H](NC(=O)CCCCCC(=O)N2CCN(CC[C@H](CSc3ccccc3)Nc3ccc(S(=O)(=O)NC(=O)c4ccc(N5CCN(CC6=C(c7ccc(Cl)cc7)CCC(C)(C)C6)CC5)cc4)cc3S(=O)(=O)C(F)(F)F)CC2)C(C)(C)C)cc1 [DT2216, reference compound]	17.3 ± 9.57 nM	165 ± 70.7 nM	81 ± 24.9 nM
CC1(C)CCC(CN2CCN(c3ccc(C(=O)NS(=O)(=O)c4ccc(NC[C@H]5CC[C@H](N6CCN(Cc7ccc8c(c7)C(=O)N(C7CCC(=O)NC7=O)C8=O)CC6)CC5)c(S(=O)(=O)C(F)(F)F)c4)c(Oc4cnc5[nH]ccc5c4)c3)CC2)=C(c2ccc(Cl)cc2)C1 (stereo partly drawn) [BCL-03185, 2-((1H-pyrrolo[2,3-b]pyridin-5-yl)oxy)-4-(4-((4′-chloro-5,5-dimethyl-3,4,5,6-tetrahydro-[1,1′-biphenyl]-2-yl)methyl)piperazin-1-yl)-N-((4-((((trans)-4-(4-((2-(2,6-dioxopiperidin-3-yl)-1,3-dioxoisoindolin-5-yl)methyl)piperazin-1-yl)cyclohexyl)methyl)amino)-3-((trifluoromethyl)sulfonyl)phenyl)sulfonyl)benzamide]	< 10 nM	< 20 nM	< 20 nM
CC1(C)CCC(c2ccc(Cl)cc2)=C(CN2CCN(c3ccc(C(=O)NS(=O)(=O)c4ccc(NC[C@H]5CC[C@H](N6CCN(Cc7ccc8c(c7)CN(C7CCC(=O)NC7=O)C8=O)CC6)CC5)c(S(=O)(=O)C(F)(F)F)c4)cc3)CC2)C1 (stereo partly drawn) [BCL-03180, 4-(4-((4′-chloro-4,4-dimethyl-3,4,5,6-tetrahydro-[1,1′-biphenyl]-2-yl)methyl)piperazin-1-yl)-N-((4-((((trans)-4-(4-((2-(2,6-dioxopiperidin-3-yl)-1-oxoisoindolin-5-yl)methyl)piperazin-1-yl)cyclohexyl)methyl)amino)-3-((trifluoromethyl)sulfonyl)phenyl)sulfonyl)benzamide]	–	–	< 20 nM
CC1(C)CCC(CN2CCN(c3ccc(C(=O)NS(=O)(=O)c4ccc(NC[C@H]5CC[C@H](N6CCN(Cc7ccc8c(c7)CN(C7CCC(=O)NC7=O)C8=O)CC6)CC5)c(S(=O)(=O)C(F)(F)F)c4)c(Oc4cnc5[nH]ccc5c4)c3)CC2)=C(c2ccc(Cl)cc2)C1 (stereo partly drawn) [BCL-03179, 2-((1H-pyrrolo[2,3-b]pyridin-5-yl)oxy)-4-(4-((4′-chloro-5,5-dimethyl-3,4,5,6-tetrahydro-[1,1′-biphenyl]-2-yl)methyl)piperazin-1-yl)-N-((4-((((trans)-4-(4-((2-(2,6-dioxopiperidin-3-yl)-1-oxoisoindolin-5-yl)methyl)piperazin-1-yl)cyclohexyl)methyl)amino)-3-((trifluoromethyl)sulfonyl)phenyl)sulfonyl)benzamide]	< 10 nM	< 20 nM	< 20 nM
